Values of other authors as cited in US8394592B2, “Methods for assessing cancer susceptibility to carcinogens in tobacco products” (The Board of Regents of the University of Texas System, priority 2006, dated 2013).

Experiments:
Swiss mice = conditions: micronucleus test in Swiss mice; cited from earlier work
rats = conditions: cited from earlier work

Question: For `CN(CCCC(=O)c1cccnc1)N=O` [NNK, 4-(methylnitrosamino)-1-(3-pyridyl)-1-butanone], which mutagenicity (Swiss mice) is on record?
Answer: potent mutagen

Question: And the “lowest dose shown to induce lung tumors” value (rats)?
Answer: 1.8 mg
